This passage reports IC50 results from US20230135524A1, “ARYL HYDANTOIN HETEROCYCLES AND METHODS OF USE” (The United States of America,as represented by the …, priority 2020, published 2023).

Where only a bound is given, the exact number is not on record here.

One test deals with PC3. In words: IncuCyte % confluence cell growth inhibition, PC3. Type of test: cell-based. The note with it: Homo sapiens, PC-3, read-out: IC50 values (μM), PC3. As for the experimental part:
(§1) Images were then analyzed to discern the % confluence of cells in each well. IC50 values were calculated from dose response curves of the % cell growth inhibition relative to DMSO control at the same time point per each cell line.

A further test deals with LAPC4. The test is described as follows: IncuCyte % confluence cell growth inhibition, LAPC4. Type of test: cell-based. The settings on record: Homo sapiens, LAPC4, read-out: IC50 values (μM), LAPC4. As for the experimental part:
as §1

A further test addresses T1, Glucocorticoid Receptor (Homo sapiens, UniProt P04150).
T1 sequence (P04150 1-777): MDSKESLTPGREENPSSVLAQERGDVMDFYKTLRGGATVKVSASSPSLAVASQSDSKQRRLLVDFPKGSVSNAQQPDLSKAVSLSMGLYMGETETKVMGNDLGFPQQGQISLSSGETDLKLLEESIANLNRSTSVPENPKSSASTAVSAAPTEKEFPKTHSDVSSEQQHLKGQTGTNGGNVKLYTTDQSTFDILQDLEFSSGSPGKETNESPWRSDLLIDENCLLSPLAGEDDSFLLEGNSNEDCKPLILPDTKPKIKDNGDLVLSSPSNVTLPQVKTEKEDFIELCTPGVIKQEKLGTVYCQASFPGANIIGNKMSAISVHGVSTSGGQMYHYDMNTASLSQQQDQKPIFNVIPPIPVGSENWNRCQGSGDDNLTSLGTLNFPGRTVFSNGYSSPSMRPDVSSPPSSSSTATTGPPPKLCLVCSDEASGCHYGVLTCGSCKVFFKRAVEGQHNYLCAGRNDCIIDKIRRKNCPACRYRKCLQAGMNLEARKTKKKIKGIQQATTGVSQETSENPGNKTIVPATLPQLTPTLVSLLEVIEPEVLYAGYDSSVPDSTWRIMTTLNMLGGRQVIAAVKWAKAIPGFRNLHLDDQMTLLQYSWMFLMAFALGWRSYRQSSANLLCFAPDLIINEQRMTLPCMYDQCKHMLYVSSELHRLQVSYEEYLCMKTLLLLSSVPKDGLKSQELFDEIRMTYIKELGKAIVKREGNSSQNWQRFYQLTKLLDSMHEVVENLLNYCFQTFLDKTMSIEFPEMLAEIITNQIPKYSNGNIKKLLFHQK
The test is described as follows: Radioligand competition binding, [3H] dexamethasone. The settings on record: competition with 0.5 nM [3H] dexamethasone. The protocol:
(§2) Binding assays were performed via competition with radioactive ligands across a range of dose of compounds 15a and 19d. For aldosterone binding, the aldosterone receptor was incubated for 20 hours with […] aldosterone. Similarly, the androgen receptor was co-incubated with 0.5 nM of [^3H] methyltrienolone, the estrogen receptor alpha was co-incubated with 0.5 nM [^3H] estradiol, the glucocorticoid receptor with 0.5 nM [^3H] dexamethasone, and the progesterone receptor with 0.5 nM [^3H] progesterone as parent ligands.
A general note: In a radioligand displacement assay an active substance lowers the binding of a labelled ligand.

In another test the test system is LNCAP AR. The test is described as follows: IncuCyte % confluence cell growth inhibition, LNCAP AR. Type of test: cell-based. The settings on record: read-out: IC50 values (μM), LNCAP AR. As for the experimental part:
as §1

Another test has as its system LNCaP ARF876L. In words: IncuCyte % confluence cell growth inhibition, LNCaP ARF876L. The format is cell-based. The settings on record: Homo sapiens, AR-positive, AR mutation F876L, % cell growth inhibition relative to DMSO. The protocol:
as §1

A further test concerns the target T2, Aldosterone Receptor (UniProt P22199).
T2 sequence (P22199 1-981): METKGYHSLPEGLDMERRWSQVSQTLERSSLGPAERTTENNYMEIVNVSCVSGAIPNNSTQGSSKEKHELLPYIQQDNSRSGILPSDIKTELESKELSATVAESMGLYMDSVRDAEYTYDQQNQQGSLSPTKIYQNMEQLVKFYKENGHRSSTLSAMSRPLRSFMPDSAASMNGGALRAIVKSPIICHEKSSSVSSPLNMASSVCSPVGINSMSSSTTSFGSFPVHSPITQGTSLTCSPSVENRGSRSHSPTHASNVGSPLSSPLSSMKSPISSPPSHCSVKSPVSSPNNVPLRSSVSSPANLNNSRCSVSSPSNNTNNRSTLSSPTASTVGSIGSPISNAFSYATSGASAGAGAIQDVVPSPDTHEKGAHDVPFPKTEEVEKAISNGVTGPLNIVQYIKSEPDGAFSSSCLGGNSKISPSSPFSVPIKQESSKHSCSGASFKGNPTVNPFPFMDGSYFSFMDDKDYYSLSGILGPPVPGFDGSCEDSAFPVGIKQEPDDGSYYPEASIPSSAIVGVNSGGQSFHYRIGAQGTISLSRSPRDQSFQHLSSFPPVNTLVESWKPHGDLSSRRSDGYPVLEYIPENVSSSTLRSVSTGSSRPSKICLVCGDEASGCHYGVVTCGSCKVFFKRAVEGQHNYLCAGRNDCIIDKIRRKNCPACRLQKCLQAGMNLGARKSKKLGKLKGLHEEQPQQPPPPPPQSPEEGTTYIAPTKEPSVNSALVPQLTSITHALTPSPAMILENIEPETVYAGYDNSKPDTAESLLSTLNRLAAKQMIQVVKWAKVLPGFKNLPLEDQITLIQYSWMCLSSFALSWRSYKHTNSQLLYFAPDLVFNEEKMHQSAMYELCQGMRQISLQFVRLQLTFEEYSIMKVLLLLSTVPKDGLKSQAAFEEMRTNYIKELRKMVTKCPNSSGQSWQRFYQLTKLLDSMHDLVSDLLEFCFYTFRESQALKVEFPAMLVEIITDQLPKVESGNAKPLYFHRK
The test is described as follows: Radioligand competition binding, [3H] aldosterone. The settings on record: competition with [3H] aldosterone, 20 hours. As for the experimental part:
as §2

For a further test, the target named is Estrogen Receptor alpha (Homo sapiens, UniProt P03372). In words: Radioligand competition binding, [3H] estradiol. The settings on record: competition with 0.5 nM [3H] estradiol. As for the experimental part: as §2
A further test deals with 22Rv1. The test is described as follows: IncuCyte % confluence cell growth inhibition, 22Rv1. The format is cell-based. The note with it: Homo sapiens, 22Rv1, read-out: IC50 values (μM), 22Rv1. As for the experimental part: as §1
The test system of the next test is DU145. The test is described as follows: IncuCyte % confluence cell growth inhibition, DU145. Type of test: cell-based. The settings on record: Homo sapiens, DU-145, read-out: IC50 values (μM), DU145. The protocol:
as §1

The test system of the next test is LNCaP ARin vivo. The test is described as follows: IncuCyte % confluence cell growth inhibition, LNCaP ARin vivo. The format is cell-based. The note with it: Homo sapiens, read-out: IC50 values (μM), LNCaP ARin vivo. The protocol:
as §1

The subject of another test is LNCaP. The test is described as follows: IncuCyte % confluence cell growth inhibition, LNCaP. Type of test: cell-based. The settings on record: Homo sapiens, read-out: IC50 values (μM), LNCaP. The protocol:
as §1

Chain of Estrogen Receptor alpha (P03372 whole entry): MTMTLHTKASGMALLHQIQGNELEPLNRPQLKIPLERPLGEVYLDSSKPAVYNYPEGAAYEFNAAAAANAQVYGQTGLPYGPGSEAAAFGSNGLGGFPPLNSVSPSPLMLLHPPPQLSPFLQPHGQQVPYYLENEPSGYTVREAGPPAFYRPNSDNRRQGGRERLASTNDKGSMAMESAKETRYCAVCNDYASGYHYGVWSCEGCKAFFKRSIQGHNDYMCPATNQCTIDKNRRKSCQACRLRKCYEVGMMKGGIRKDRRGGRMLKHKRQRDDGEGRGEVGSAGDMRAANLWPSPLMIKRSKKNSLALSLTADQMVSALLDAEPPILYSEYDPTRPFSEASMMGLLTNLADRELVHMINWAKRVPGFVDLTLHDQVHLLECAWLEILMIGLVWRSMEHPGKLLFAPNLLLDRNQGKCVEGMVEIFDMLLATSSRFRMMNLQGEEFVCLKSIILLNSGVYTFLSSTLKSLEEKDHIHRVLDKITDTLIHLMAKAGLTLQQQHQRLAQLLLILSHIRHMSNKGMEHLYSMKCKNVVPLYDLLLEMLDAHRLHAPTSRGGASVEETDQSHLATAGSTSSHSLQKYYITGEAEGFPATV

`CC1(C)C(=O)N(c2ccc(C#N)c(C(F)(F)F)c2)C(=S)N1Cc1ccc(-c2c[nH]nn2)cc1` [Compound 15a, 4-(3-(4-(1H-1,2,3-triazol-4-yl)benzyl)-4,4-dimethyl-5-oxo-2-thioxoimidazolidin-1-yl)-2-(trifluoromethyl)benzonitrile]: the IC50 in the test on PC3 was 59.8 µM; in the test on LAPC4 it was 13.3 µM; at Glucocorticoid Receptor, > 10000 nM; in the test on LNCAP AR, 17 µM; in the test on LNCaP ARF876L, 21 µM; at Aldosterone Receptor, > 10000 nM. The IC50 on Estrogen Receptor alpha is > 10000 nM; in the test on 22Rv1, 18.3 µM; in the test on DU145, 37.3 µM; in the test with LNCaP ARin vivo, 18.5 µM; in the test on LNCaP it was 30.5 µM.
Take `CC1(C)C(=O)N(c2ccc(C#N)c(C(F)(F)F)c2)C(=S)N1Cc1ccc(-c2c[nH]nn2)cc1F` [Compound 19d, 4-(3-(2-Fluoro-4-(1H-1,2,3-triazol-4-yl)benzyl)-4,4-dimethyl-5-oxo-2-thioxoimidazolidin-1-yl)-2-(trifluoromethyl)benzonitrile]: the IC50 in the test on PC3 is 44.8 µM; in the test on LAPC4, 16.3 µM; on Glucocorticoid Receptor, > 10000 nM; in the test on LNCAP AR it was 28.2 µM; in the test on LNCaP ARF876L, 22.3 µM; at Aldosterone Receptor, > 10000 nM. For the same compound, the IC50 was > 10000 nM at Estrogen Receptor alpha; 26.9 µM in the test on 22Rv1; 53.6 µM with DU145; 28.2 µM with LNCaP ARin vivo; 35.7 µM in the test on LNCaP.

What is called IC50 is the concentration that gives 50% inhibition.
